Results taken from PubChem BioAssay (NCI).
Where “and” joins values, the source holds several entries; their conditions need not be identical. Identical values can stand only once.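 Interpolation was linear, between the two tested concentrations surrounding the appropriate level; five concentrations were tested over 48 hours in 96-well plates. The concentration for 50% growth inhibition is given as GI50. Definition used: TGI = concentration required for complete inhibition of growth.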 Where a SMILES comes first, the peptide text is derived from it. [ ]: non-standard residue; d: D form. The star is where a group is joined. ξ: configuration not given here. NMeN = CN[C@@H](CC(N)=O)C(=O)O; NMeV = CN[C@H](C(=O)O)C(C)C; ξNMeV = CNC(C(=O)O)C(C)C; Boc = CC(C)(C)OC(=O)*; ξNMeA = CNC(C)C(=O)O

Assays:
Assay in all cases: inhibition of tumour cell growth, NCI panel, 48 h
RPMI-8226 leukemia = tested on: RPMI-8226 leukemia
SF-539 CNS = tested on: SF-539 CNS
K-562 leukemia = tested on: K-562 leukemia
NCI-H460 lung = tested on: NCI-H460 lung
SW-620 colon = tested on: SW-620 colon
HT29 colon = tested on: HT29 colon
MCF7 breast = tested on: MCF7 breast
A498 renal = tested on: A498 renal
COLO 205 colon = tested on: COLO 205 colon
IGROV1 ovarian = tested on: IGROV1 ovarian

Structure (SMILES) | GI50 (RPMI-8226 leukemia) | TGI (RPMI-8226 leukemia) | GI50 (SF-539 CNS) | TGI (SF-539 CNS) | GI50 (K-562 leukemia) | TGI (K-562 leukemia) | GI50 (NCI-H460 lung) | TGI (NCI-H460 lung) | GI50 (SW-620 colon) | TGI (SW-620 colon) | GI50 (HT29 colon) | TGI (HT29 colon) [µM] | GI50 (MCF7 breast) | TGI (MCF7 breast) | GI50 (A498 renal) | TGI (A498 renal) | GI50 (COLO 205 colon) | TGI (COLO 205 colon) | GI50 (IGROV1 ovarian) | TGI (IGROV1 ovarian)
COC(=O)c1c2c(c(C)[n+]([O-])c1C)C(=O)C=C(NCc1ccc(OC)cc1)C2=O | 2.03 µM | 9.26 µM | 1.77 µM | 4.36 µM | 2.68 µM | 15.3 µM | 1.29 µM | 4.69 µM | 1.08 µM | 4.08 µM | 1.2 µM | > 36.7 | 0.72 µM | 2.14 µM | 1.59 µM | 6.21 µM | 0.831 µM | 2.45 µM | 1.06 µM | 3.59 µM
CCOc1ccc(Nc2nc(-c3ccc4c(c3)NC(=O)CO4)cs2)cc1 | 14.9 µM | > 100 µM | 16.1 µM | > 100 µM | 4.86 µM | > 100 µM | 4.37 µM | > 100 µM | 19.6 µM | > 100 µM | 5.74 µM | > 100 | 3.18 µM | 23.3 µM | 13.6 µM | 55.4 µM | 11.1 µM | 33.6 µM | 15.5 µM | > 100 µM
O=CN1N=C(c2ccc(Cl)cc2)CC1c1cccc(Nc2ccnc3cc(Cl)ccc23)c1 (centres undefined) | 0.611 µM | 4.19 µM | 1.69 µM | 5.03 µM | 0.388 µM | 10.2 µM | 1.86 µM | 11.9 µM | 1.61 µM | 24.2 µM | 1.28 µM | 7.61 | 0.866 µM | 16 µM | 0.977 µM | 8.97 µM | 1.43 µM | 4.51 µM | 1.44 µM | > 100 µM
COc1c(Cl)c2c(c(OC)c1OC)-c1ccc(SC)c(=O)cc1[C@@H](NC(=O)OCC(F)(F)F)CC2 | < 0.01 µM | 8.21 µM | < 0.01 µM | < 0.01 µM | < 0.01 µM | > 100 µM | < 0.01 µM | 10.2 µM | < 0.01 µM | > 100 µM | < 0.01 µM | 23.8 | < 0.01 µM | > 100 µM | < 0.01 µM | < 0.01 µM | < 0.01 µM | 0.0314 µM | < 0.01 µM | > 100 µM
O=[N+]([O-])c1ccc(N=Nc2c(O)ccc3ccccc23)cc1 | – | > 100 µM | – | > 100 µM | – | > 100 µM | – | > 100 µM | – | > 100 µM | 35.8 µM and > 100 µM | > 100 | – | > 100 µM | – | > 100 µM | – | > 100 µM | – | > 100 µM
O=P([O-])(O)OP(=O)([O-])O.[NH-][C@@H]1CCCC[C@H]1[NH-].[Pt+4] | 13.7 µM and 3.16 µM | > 100 µM | 18.6 µM and 8.47 µM | > 100 µM | 26.1 µM and 4.09 µM | > 100 µM | 4.4 µM and 2.33 µM | > 100 µM and 19.5 µM | 4.85 µM and 0.659 µM | > 100 µM | 5.67 µM and 3.09 µM | > 100 | 7.78 µM and 2.93 µM | > 100 µM | > 100 µM and 18.3 µM | > 100 µM | 6.13 µM and 6.32 µM | > 100 µM and 21.5 µM | 12.3 µM and 4.8 µM | > 100 µM
COC(=O)C(C)N(C)C(=O)[C@H](CC(N)=O)N(C)C(=O)[C@@H]1CCCN1C(=O)[C@H](C(C)C)N(C)C(=O)C(C(C)C)N(C)C(=O)[C@@H](NC(=O)OC(C)(C)C)C(C)C (some centres undefined) (Boc-V[ξNMeV][NMeV]P[NMeN][ξNMeA]-OMe) | – | > 100 µM | > 100 µM | > 100 µM | > 100 µM | 50 µM and > 100 µM | 17.9 µM | > 50 µM and 32.7 µM | 12.7 µM | > 50 µM and 26.7 µM | > 100 µM | > 100 | – | > 50 µM | > 100 µM | > 100 µM | 34.9 µM | > 100 µM | > 100 µM | > 100 µM
CC1=C2C[C@H]3[C@@H](CC=C4C[C@@H](O)CC[C@@]43C)[C@@H]2CC[C@]12O[C@@H]1C[C@H](C)CN[C@H]1[C@H]2C | 8.84 µM and 18.1 µM | 31.8 µM and 46.2 µM | 21.3 µM and 20 µM | 50 µM and 37.8 µM | 9.4 µM and 15.9 µM | 34.7 µM and 40.2 µM | 21.8 µM and 19.9 µM | 50 µM and 44.4 µM | > 50 µM and 32.9 µM | > 100 µM | 26.2 µM | 50 | 29 µM and 23.7 µM | 50 µM and 55.9 µM | 43.2 µM and 19.4 µM | 50 µM and 37.9 µM | 13.6 µM and 4.28 µM | 38.6 µM and 19.1 µM | 40.5 µM and 17.5 µM | 50 µM and 38.9 µM
O=S(=O)(c1ccc(N=C2NN=C(c3c[nH]c4ccccc34)CS2)cc1)N1CCOCC1 | 3.72 µM | 76.9 µM | 27.7 µM | > 100 µM | 2.65 µM | > 100 µM | 5.04 µM | > 100 µM | 77.2 µM | > 100 µM | 4.48 µM | > 100 | 4.31 µM | > 100 µM | 15.7 µM | > 100 µM | 14.7 µM | > 100 µM | > 100 µM | > 100 µM
Cc1cc2cc3c(C)cc(=O)oc3c(C)c2o1 | – | > 100 µM | – | > 100 µM | – | > 100 µM | – | > 100 µM | – | > 100 µM | – | > 100 | – | > 100 µM | – | > 100 µM | – | > 100 µM | – | > 100 µM
